# Measured values published in publication PMC8041318, “Folic Acid–Peptide Conjugates Combine Selective Cancer Cell Internalization with Thymidylate Synthase Dimer Interface Targeting” (Journal of Medicinal Chemistry, 2021).
# Tests used:
# IGROV-1 cells = assay: Cell growth inhibition, crystal violet dye assay; assay type: cell-based, human
# Text: (§1) SQ was defined as the net growth inhibitory effect of the analogue combination divided by the sum of the net individual analogue effects on growth inhibition. A quotient of >1.1 indicates a synergistic effect, that between 0.9 and 1.1 indicates an additive effect, while a quotient of <0.9 indicates an antagonistic effect.
# A2780 cells = assay: Cell growth inhibition, crystal violet dye assay (combination study); assay type: cell-based, human
# Text: as §1
# RFC = conditions: physiological conditions; read-out: Km toward RFC; cited from earlier work
# [1] = system: R1-11-FR2 and R5-FR12 HeLa cells; design: method as in PMID 19074442; conditions: tritiated FA; cited from earlier work
# DHFR = conditions: IGROV-1, 5 μM, 48 h
# HSP90AA1 = conditions: IGROV-1, 5 μM, 48 h
# in vitro = conditions: human, cytosol
# Experimental: Given the relevance of the concentration data, we checked whether the 30 min incubation time could represent a drawback in our analytical approach.
# C13* human ovarian cancer cell lines (highly cisplatin-resistant) were prepared as reported for IGROV1 (LC-MS compartmentalization experiment).[65] […] After each interval, the cells (about 2 million per Petri plate) were washed three times with acid phosphate-buffered saline (PBS, pH 5.0), scraped, and counted. […] Each cytosol aliquot was diluted to a final volume of 500 μL with a 1:1 mixture of H2O with 0.1% HCOOH and ACN with 1 μM 1,4-dithiothreitol (DTT) as an antioxidant agent.
# Sample analysis was carried out on an UltiMate 3000 UHPLC (Thermo Fisher Scientific) coupled to an Orbitrap Q-Exactive mass spectrometer. We used an Agilent Poroshell C18 column (120 Å, 100 × 2.1 mm^2, 2.7 μm ps) to separate the analytes, thermostated at 30 °C, with an injection volume of 20 μL per sample. […] C13* cells were assumed to have a spherical volume of 2 pL, whose 60% represented by cytoplasm. Thus, interpolated values were multiplied by the final dilution value (500 μL) and divided by the number of cells for each sample multiplied by a single-cell cytosol volume (1.2 pL).
smiles,measurement,setting,value
"O=c1[nH]cc(F)c(=O)[nH]1 [5-FU, 5-fluorouracil]","% Growth inhibition, single compound",IGROV-1 cells; 5FU 10µM,28.4%
same,"% Growth inhibition, single compound",IGROV-1 cells; 5FU 15µM,36.5%
same,"% Growth inhibition, single compound",A2780 cells; 5FU 10µM,45.3%
same,"% Growth inhibition, single compound",A2780 cells; 5FU 15µM,34.5%
same,hTS protein levels (in words),"hTS; IGROV-1, Figures SI-10 and SI-11",slightly increased
"Nc1nc2ncc(CNc3ccc(C(=O)N[C@@H](CCC(=O)O)C(=O)O)cc3)nc2c(=O)[nH]1 [FA, folic acid]",Km,RFC,> 100 µM
same,ratio of concentrations between vesicular and cytosolic fractions,[1],10.8
"Nc1nc2[nH]cc(CCc3ccc(C(=O)N[C@@H](CCC(=O)O)C(=O)O)cc3)c2c(=O)[nH]1 [PMX, pemetrexed]",upregulation of hTS protein levels,"hTS; IGROV-1, 5 μM, 48 h",2.5 fold
CC(C)C[C@H](NC(=O)CC[C@H](NC(=O)c1ccc(NCc2cnc3nc(N)nc(O)c3n2)cc1)C(=O)O)C(=O)N[C@@H](CO)C(=O)N[C@@H](CS)C(=O)N[C@H](CCC(N)=O)C(=O)N[C@@H](CC(C)C)C(=O)N[C@@H](Cc1ccc(O)cc1)C(=O)N[C@@H](CCC(N)=O)C(=O)N[C@@H](CCCNC(=N)N)C(=O)O [FA–[DGln^4]LR],DHFR protein level with respect to control (in words),DHFR,clear decrease
same,reduction of HSP90AA1 level,HSP90AA1,10%
"[NH2][Pt]([NH2])([Cl])[Cl] [cDDP, cisplatin]","% Growth inhibition, single compound",IGROV-1 cells; cDDP 1µM,40.3%
same,"% Growth inhibition, single compound",IGROV-1 cells; cDDP 2µM,44.9%
same,"% Growth inhibition, single compound",IGROV-1 cells; cDDP 5µM,48.8%
same,"% Growth inhibition, single compound",A2780 cells; cDDP 1µM,37.3%
same,"% Growth inhibition, single compound",A2780 cells; cDDP 2µM,49.1%
same,"% Growth inhibition, single compound",A2780 cells; cDDP 5µM,78.6%
Cc1nc2ccc(CN(C)c3ccc(C(=O)N[C@@H](CCC(=O)O)C(=O)O)s3)cc2c(=O)[nH]1 [raltitrexed],"% Growth inhibition, single compound",IGROV-1 cells; RTX 10nM,34.5%
same,"% Growth inhibition, single compound",IGROV-1 cells; RTX 20nM,29.5%
same,"% Growth inhibition, single compound",A2780 cells; RTX 10nM,56.8%
same,"% Growth inhibition, single compound",A2780 cells; RTX 20nM,59.9%
CC(C)C[C@H](NC(=O)CC[C@H](NC(=O)c1ccc(NCc2cnc3nc(N)[nH]c(=O)c3n2)cc1)C(=O)O)C(=O)N[C@@H](CO)C(=O)N[C@@H](CS)C(=O)N[C@@H](CCC(N)=O)C(=O)N[C@@H](CC(C)C)C(=O)N[C@@H](Cc1ccc(O)cc1)C(=O)N[C@@H](CCC(N)=O)C(=O)N[C@@H](CCCNC(=N)N)C(=O)O [FA–LR],half-life,in vitro,3.33 h
